Experimental data published in patent publication US10117430B2, “Malononitrile compounds for controlling animal pests” (BASF SE, priority 2012, dated 2018).

Assays:
Assay type in all cases: in vivo
[1] = test system: Cowpea Aphid (Aphis craccivora); test: B.1 Cowpea aphid spray test on potted cowpea plants; conditions: in comparison with untreated controls, population reduction assessed after 24, 72 and 120 hours
Method: B.1 Cowpea Aphid (Aphis craccivora)
The active compounds were formulated in 50:50 (v/v) acetone:water. The test solution was prepared at the day of use. Potted cowpea plants colonized with approximately 100-150 aphids of various stages were sprayed after the pest population has been recorded. Population reduction was assessed after 24, 72, and 120 hours.

[2] = test system: Green Peach Aphid (Myzus persicae); test: B.3 Green peach aphid systemic test, artificial diet under membrane; conditions: 72 h, concentration of the test solution 2500 mg/L, 3 days
Outline: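 Systemic uptake from artificial liquid diet beneath a membrane, compound formulated in 75% water/25% DMSO and added to diet at several concentrations, two replicates. 5-8 adult aphids fed on treated diet for 3 days at about 23±1° C. and 50±5% RH. Mortality and fecundity scored visually.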

[3] = test system: Silverleaf Whitefly (Bemisia argentifolii); test: B.5 Silverleaf whitefly test on sprayed cotton plants; conditions: 72 h, in comparison with untreated controls, 3 days after treatment
Outline: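 Cotyledon-stage cotton plants were electrostatically sprayed with compound diluted from a 10,000 ppm cyclohexanone stock into 50% acetone/water with 0.01% nonionic surfactant. After drying, 10–12 adult whiteflies (3–5 days old) were released onto each plant. Mortality was scored after 3 days at 25 °C and 20–40% RH against untreated plants.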

[4] = test system: Southern Armyworm (Spodoptera eridania); test: B.6 Southern armyworm test on sprayed lima bean plants; conditions: 96 h, in comparison with untreated controls, 4 days after treatment
Method: B.6 Southern Armyworm (Spodoptera eridania)
The active compounds were formulated in cyclohexanone as a 10,000 ppm solution supplied in 1.3 ml ABgene® tubes. These tubes were inserted into an automated electrostatic sprayer equipped with an atomizing nozzle and they served as stock solutions for which lower dilutions were made in 50% acetone:50% water (v/v). A nonionic surfactant (Kinetic®) was included in the solution at a volume of 0.01% (v/v). Lima bean plants (variety Sieva) were grown 2 plants to a pot and selected for treatment at the 1st true leaf stage. Test solutions were sprayed onto the foliage by an automated electrostatic plant sprayer equipped with an atomizing spray nozzle. The plants were dried in the sprayer fume hood and then removed from the sprayer. Each pot was placed into perforated plastic bags with a zip closure. Ten to 11 armyworm larvae were placed into the bag and the bags zipped closed. Test plants were maintained in a growth room at 25° C. and 20-40% relative humidity for 4 days, avoiding direct exposure to fluorescent light (24 hour photoperiod) to prevent trapping of heat inside the bags. Mortality and reduced feeding were assessed 4 days after treatment, compared to untreated control plants.

[5] = test system: Boll Weevil (Anthonomus grandis); test: B.9 Boll weevil microtiter diet test, egg and larval mortality; conditions: 120 h, in comparison with untreated controls, egg and larval mortality after 5 days
Outline: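 Insect diet carrying 20-30 A. grandis eggs per well was sprayed with compounds formulated in 75% water/25% DMSO, at various concentrations with two replicates. Plates were held at about 23±1° C and 50±5% RH for 5 days. Egg and larval mortality were then scored visually.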

[6] = test system: Rice brown plant hopper (Nilaparvata lugens); test: B.11 Rice brown plant hopper test on sprayed rice seedlings; conditions: in comparison with untreated controls, after 72 hours
Outline: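 Compounds formulated in 50:50 acetone:water with 0.1% vol/vol surfactant and sprayed onto potted rice seedlings. Air-dried plants were caged, infested with 10 adults and held at about 28-29 °C, 50-60% RH. Percent mortality scored after 72 hours.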

[7] = test system: Yellow Fever Mosquito (Aedes aegypti); test: whole plant or invertebrate; conditions: 48 h, in comparison with untreated controls, larval mortality after 2 days
Outline: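 Freshly hatched larvae (5-15 per well) in 200 μl tap water; compounds formulated in 75% water/25% DMSO and sprayed at 2.5 μl per well at several concentrations, two replicates. Incubated 2 days at 28±1° C., 80±5% RH; larval mortality scored visually.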

[8] = test system: Green Peach Aphid (Myzus persicae); test: B.13 Green peach aphid test on sprayed bell pepper plants; conditions: 120 h, in comparison with untreated controls, after 5 days
Source text: B.13 Green Peach Aphid (Myzus persicae)
The active compounds were formulated in cyclohexanone as a 10,000 ppm solution supplied in tubes. The tubes were inserted into an automated electrostatic sprayer equipped with an atomizing nozzle and they served as stock solutions for which lower dilutions were made in 50% acetone:50% water (v/v). A nonionic surfactant (Kinetic®) was included in the solution at a volume of 0.01% (v/v). Bell pepper plants at the first true-leaf stage were infested prior to treatment by placing heavily infested leaves from the main colony on top of the treatment plants. Aphids were allowed to transfer overnight to accomplish an infestation of 30-50 aphids per plant and the host leaves were removed. The infested plants were then sprayed by an automated electrostatic plant sprayer equipped with an atomizing spray nozzle. The plants were dried in the sprayer fume hood, removed, and then maintained in a growth room under fluorescent lighting in a 24-hr photoperiod at about 25° C. and about 20-40% relative humidity. Aphid mortality on the treated plants, relative to mortality on untreated control plants, was determined after 5 days.

[9] = test system: Cotton Aphid (Aphis gossypii, Mixed Life Stages); test: B.14 Cotton aphid test on sprayed cotton plants; conditions: 120 h, in comparison with untreated controls, after 5 days
Method: B.14 Cotton Aphid (Aphis gossypii, Mixed Life Stages)
The active compounds were formulated in cyclohexanone as a 10,000 ppm solution supplied in 1.3 ml ABgene® tubes. These tubes were inserted into an automated electrostatic sprayer equipped with an atomizing nozzle and they served as stock solutions for which lower dilutions were made in 50% acetone:50% water (v/v). A nonionic surfactant (Kinetic®) was included in the solution at a volume of 0.01% (v/v). Cotton plants at the cotyledon stage were infested with aphids prior to treatment by placing a heavily infested leaf from the main aphid colony on top of each cotyledon. Aphids were allowed to transfer overnight to accomplish an infestation of 80-100 aphids per plant and the host leaf was removed. The infested plants were then sprayed by an automated electrostatic plant sprayer equipped with an atomizing spray nozzle. The plants were dried in the sprayer fume hood, removed from the sprayer, and then maintained in a growth room under fluorescent lighting in a 24-hr photoperiod at 25° C. and 20-40% relative humidity. Aphid mortality on the treated plants, relative to mortality on untreated control plants, was determined after 5 days.

CC(c1ccc(F)cn1)C(C#N)(C#N)c1ccccc1 (stereo not shown) [II-8]
≥ 75%: mortality at 500 ppm [1] | mortality at 2500 µg/mL [2] | mortality at 500 ppm [3] | mortality at 300 ppm ([4]; 300 ppm) | mortality at 500 ppm ([4]; 500 ppm) | mortality at 2500 ppm [5] | mortality at 300 ppm [6] | mortality at 2500 ppm [7] | mortality at 300 ppm [8] | mortality at 300 ppm [9]
